Results published in patent US7892350B2, “Sacrificial agents for fly ash concrete” (Boral Material Technologies Inc., priority 2003, dated 2011).
Read-outs that look alike come from different tables or passages of the source.

Assay: Second sacrificial agent testing protocol: paste air measurements with DDBS (0.0125 wt %) and rating; on Overall performance rating (second protocol rating): key: 0: Fail; 1: Poor; 2: Good; 3: Preferred; 4: Most preferred; on SA Rating (0-4): key: 0: Fail; 1: Poor; 2: Good; 3: Preferred; 4: Most preferred
Experimental: The second sacrificial agents evaluation protocol has been designed to assess the relative potential value of candidate sacrificial agents with a maximum of five paste air measurements.
The first two measurements (of entrained air) are carried out with a standard AEA in a portland cement paste and in a FA:cement paste; these two tests provide reference values which can be used for the relative assessment of a series of sacrificial agents. The other three paste air measurements pertain to the properties and effectiveness of the sacrificial agents.
1. Measurement of the air entrained by a standard air-entraining admixture in a cement paste of fixed composition and fluidity; the latter is a reference system which provides ‘reference’ air entrainment values (‘A’ in FIG. 8).
2. […] The difference between ‘B’ and ‘A’ in FIG. 8 is the reduction in air entrainment due to the presence of the fly ash; this is illustrated as ‘C’ in FIG. 8.
In the present SA testing and evaluation protocol, the fly ash selected should remain the same for the entire set of additives tested, in order to provide reliable relative performance ranking. For the present series of test, the Fly Ash selected was the one identified as B1 in Table 1 below; the physico-chemical properties of this fly ash are reported in Table 1.
In testing for the relative performance of the sacrificial agent, the sacrificial agent dosage was chosen in the range 0-0.1 wt %, which corresponds to typical dosage values observed in paste, mortar and concrete tests reported in Tables 2, 3 and 4 and Tables 7 to 34.
3. Measurement of the air entrainment of the SA, by itself, in a cement-only paste at a dosage of 0.1 wt %; this is illustrated as ‘D’ in FIG. 8.
4. Measurement of the air entrained by DDBS in the FA-cement paste comprising 0.05% wt SA, under the same conditions as described in 2 above. The air entrainment value observed in this system, compared to that observed in the absence of the SA, yields the air recovery due to the SA, and is illustrated schematically as ‘E’ in FIG. 8.
5. Same as in 4 above, but with a higher SA concentration at 0.1 wt %; the air entrainment observed, again compared to the value observed in the absence of the SA, yields a second value of air recovery by the SA and is illustrated as ‘F’ in FIG. 8.
For the relative performance rating of the group of products chosen as potential SA and listed in Table 36, the following rating scheme (Tables A and B) was adopted (referring to FIG. 8 and quantities defined therein):
1: Chemical name of compound tested as potential sacrificial agent • Col. 2: Level of air entrainment by the candidate sacrificial agent, at a concentration of 0.1 wt %, in a Portland cement paste ([…]) • Col. […] 5: Sacrificial agent overall rating index (described below) • Col. 6: Hydrophilic-Lipophilic Balance (HLB) values of candidate sacrificial agent (source and significance of HLB data given below) • Col. 7: Logarithm of the Oil(octanol)/water partition coefficient (Kow) of the candidate sacrificial agents (source and significance of data given below).

[1] = Portland cement paste (PCA), […]
[2] = sacrificial agent overall rating index
[3] = sum of ratings of air entrainment recovery by 0.05% and 0.1% SA, DDBS 0.0125 wt %, 50:50 B1 fly ash:cement paste
[4] = B1 FA/cement paste, 0.0125 wt % DDBS, 0.05 wt % SA
[5] = B1 FA/cement paste, 0.0125 wt % DDBS, 0.10 wt % SA
[6] = Portland cement paste (PCA), 0.1 wt % SA, no DDBS

COC(=O)CC(=O)OC [Dimethyl malonate]
B1 + 0.0125% DDBS + 0.05% SA (air entrainment) (B1 FA/cement paste, […]): 2.5
B1 + 0.0125% DDBS + 0.1% SA (air entrainment) (B1 FA/cement paste, […]): 2.6
PCA + 0.1% SA (level of air entrainment by the candidate sacrificial agent) [1]: 0.2
SA Rating (0-4) [2]: 0

O=C(O)Cc1ccccc1 [Phenyl acetic acid]
Overall performance rating (second protocol rating): 1
B1 + 0.0125% DDBS + 0.05% SA (air entrainment) (B1 FA/cement paste, […]): 2.8
B1 + 0.0125% DDBS + 0.1% SA (air entrainment) (B1 FA/cement paste, […]): 4.2
PCA + 0.1% SA (level of air entrainment by the candidate sacrificial agent) [1]: 0.2
SA Rating (0-4) [2]: 1

POE (20) Sorbitan monolaurate [Tween®]
Overall performance rating (second protocol rating) [3]: 4

CO [Methanol]
B1 + 0.0125% DDBS + 0.05% SA (air entrainment) (B1 FA/cement paste, […]): 1.9
B1 + 0.0125% DDBS + 0.1% SA (air entrainment) (B1 FA/cement paste, […]): 2.2
PCA + 0.1% SA (level of air entrainment by the candidate sacrificial agent) [1]: 0.6
SA Rating (0-4) [2]: 0

CC(O)CNCC(C)O (stereo not drawn) [Di-isopropanolamine]
B1 + 0.0125% DDBS + 0.05% SA (air entrainment): 4.6
B1 + 0.0125% DDBS + 0.1% SA (air entrainment): 5.5
Overall performance rating (second protocol rating): 3
PCA + 0.1% SA (level of air entrainment by the candidate sacrificial agent): 1.1
SA Rating (0-4): 3

CCCC(=O)OCC [Ethylbutyrate]
Overall performance rating (second protocol rating): 3
B1 + 0.0125% DDBS + 0.05% SA (air entrainment) (B1 FA/cement paste, […]): 5.2
B1 + 0.0125% DDBS + 0.1% SA (air entrainment) (B1 FA/cement paste, […]): 4.3
PCA + 0.1% SA (level of air entrainment by the candidate sacrificial agent) [1]: 0.7
SA Rating (0-4) [2]: 3

CC(O)CO (stereo not drawn) [Propylene Glycol]
B1 + 0.0125% DDBS + 0.05% SA (air entrainment) (B1 FA/cement paste, […]): 3.0
B1 + 0.0125% DDBS + 0.1% SA (air entrainment) (B1 FA/cement paste, […]): 3.6
PCA + 0.1% SA (level of air entrainment by the candidate sacrificial agent) [1]: 0.5
SA Rating (0-4) [2]: 0

O=C([O-])c1ccccc1O.[Na+] [Sodium Salicylate]
B1 + 0.0125% DDBS + 0.05% SA (air entrainment): 2.9
B1 + 0.0125% DDBS + 0.1% SA (air entrainment): 3.0
PCA + 0.1% SA (level of air entrainment by the candidate sacrificial agent): 0.4
SA Rating (0-4): 0

CCCC=O [Butyraldehyde]
Overall performance rating (second protocol rating): 2
B1 + 0.0125% DDBS + 0.05% SA (air entrainment) (B1 FA/cement paste, […]): 4.0
B1 + 0.0125% DDBS + 0.1% SA (air entrainment) (B1 FA/cement paste, […]): 4.0
PCA + 0.1% SA (level of air entrainment by the candidate sacrificial agent) [1]: 0.0
SA Rating (0-4) [2]: 2

CCCCCO [1-Pentanol]
Overall performance rating (second protocol rating): 3
B1 + 0.0125% DDBS + 0.05% SA (air entrainment) (B1 FA/cement paste, […]): 4.9
B1 + 0.0125% DDBS + 0.1% SA (air entrainment) (B1 FA/cement paste, […]): 4.7
PCA + 0.1% SA (level of air entrainment by the candidate sacrificial agent) [1]: 0.9
SA Rating (0-4) [2]: 3

CCCCCCCC/C=C\CCCCCCCC(=O)O [Oleic acid]
B1 + 0.0125% DDBS + 0.05% SA (air entrainment) (B1 FA/cement paste, […]): 2.2
B1 + 0.0125% DDBS + 0.1% SA (air entrainment) (B1 FA/cement paste, […]): 1.9
PCA + 0.1% SA (level of air entrainment by the candidate sacrificial agent) [1]: 2.1
SA Rating (0-4) [2]: 0

OCc1ccccc1 [Benzyl alcohol]
B1 + 0.0125% DDBS + 0.05% SA (air entrainment) [4]: 4.1
B1 + 0.0125% DDBS + 0.1% SA (air entrainment) [5]: 5.4
PCA + 0.1% SA (level of air entrainment by the candidate sacrificial agent) [1]: 0.6
SA Rating (0-4) [2]: 3
Overall performance rating (second protocol rating) [3]: 3

C[N+](C)(C)Cc1ccccc1.[OH-] [Benzyltrimethyl ammonium hydroxide]
B1 + 0.0125% DDBS + 0.05% SA (air entrainment) [4]: 2.3
B1 + 0.0125% DDBS + 0.1% SA (air entrainment) [5]: 3.0
PCA + 0.1% SA (level of air entrainment by the candidate sacrificial agent) [6]: 1.0
SA Rating (0-4) [2]: 0

CCCCO [1-Butanol]
B1 + 0.0125% DDBS + 0.05% SA (air entrainment): 5.9
B1 + 0.0125% DDBS + 0.1% SA (air entrainment): 6.5
Overall performance rating (second protocol rating): 4
PCA + 0.1% SA (level of air entrainment by the candidate sacrificial agent): 1.2
SA Rating (0-4): 4

CC(=O)CC(C)C [Methyl isobutylketone (MIBK)]
B1 + 0.0125% DDBS + 0.05% SA (air entrainment) [4]: 5.6
B1 + 0.0125% DDBS + 0.1% SA (air entrainment) [5]: 3.9
PCA + 0.1% SA (level of air entrainment by the candidate sacrificial agent) [1]: 0.3
SA Rating (0-4) [2]: 2

CCCCOC(=O)c1ccccc1C(=O)OCCCC [N-Butyl phthalate]
B1 + 0.0125% DDBS + 0.05% SA (air entrainment) [4]: 2.2
B1 + 0.0125% DDBS + 0.1% SA (air entrainment) [5]: 2.1
PCA + 0.1% SA (level of air entrainment by the candidate sacrificial agent) [6]: 0.0
SA Rating (0-4) [2]: 0

O=P([O-])([O-])O.[Na+].[Na+] [Sodium phosphate dibasic]
B1 + 0.0125% DDBS + 0.05% SA (air entrainment) [4]: 2.1
B1 + 0.0125% DDBS + 0.1% SA (air entrainment) [5]: 2.3
PCA + 0.1% SA (level of air entrainment by the candidate sacrificial agent) [1]: 0.0
SA Rating (0-4) [2]: 0

CCCO [n-Propanol]
B1 + 0.0125% DDBS + 0.05% SA (air entrainment): 3.5
B1 + 0.0125% DDBS + 0.1% SA (air entrainment): 4.4
Overall performance rating (second protocol rating): 1
PCA + 0.1% SA (level of air entrainment by the candidate sacrificial agent): 2.0
SA Rating (0-4): 1

Tetramethyl ammonium hydroxide
B1 + 0.0125% DDBS + 0.05% SA (air entrainment): 2.5
B1 + 0.0125% DDBS + 0.1% SA (air entrainment): 2.9
PCA + 0.1% SA (level of air entrainment by the candidate sacrificial agent): 0.1
SA Rating (0-4): 0

CCN(CC)CC [Triethylamine]
B1 + 0.0125% DDBS + 0.05% SA (air entrainment): 5.2
B1 + 0.0125% DDBS + 0.1% SA (air entrainment): 5.1
Overall performance rating (second protocol rating): 4
PCA + 0.1% SA (level of air entrainment by the candidate sacrificial agent): 0.5
SA Rating (0-4): 4

Polypropylene glycol 425
Overall performance rating (second protocol rating) [3]: 4

CCCCCC(=O)OCC [Ethylcaproate]
B1 + 0.0125% DDBS + 0.05% SA (air entrainment) [4]: 4.3
B1 + 0.0125% DDBS + 0.1% SA (air entrainment) [5]: 2.4
PCA + 0.1% SA (level of air entrainment by the candidate sacrificial agent) [1]: 0.0
SA Rating (0-4) [2]: 1
Overall performance rating (second protocol rating) [3]: 1

CC(O)CN(CC(C)O)CC(C)O (stereo not drawn) [Tri-iso-propanolamine]
Overall performance rating (second protocol rating): 4

CC1COC(=O)O1 (stereo not drawn) [Propylene carbonate]
B1 + 0.0125% DDBS + 0.05% SA (air entrainment) [4]: 2.5
B1 + 0.0125% DDBS + 0.1% SA (air entrainment) [5]: 2.9
PCA + 0.1% SA (level of air entrainment by the candidate sacrificial agent) [1]: 0.4
SA Rating (0-4) [2]: 0

CCCCNC(N)=O [n-butyl urea]
B1 + 0.0125% DDBS + 0.05% SA (air entrainment) [4]: 5.3
B1 + 0.0125% DDBS + 0.1% SA (air entrainment) [5]: 7.5
PCA + 0.1% SA (level of air entrainment by the candidate sacrificial agent) [1]: 2.1
SA Rating (0-4) [2]: 4
Overall performance rating (second protocol rating) [3]: 4
